The values that follow come from publication PMC6273978, “Synthesis and Pharmacological Evaluation of Novel Pleuromutilin Derivatives with Substituted Benzimidazole Moieties” (Molecules, 2016).

The structures appear in SMILES notation. Values after ≈ are worked out from the molar mass of the structure shown.

In experiment [1] the test system is Staphylococcus haemolyticus (S. haemolyticus). Nature of the experiment: MIC testing, agar dilution method. It counts as cell-based. The conditions noted are these: 36.5 °C, 24–48 h. An excerpt:
(§1) The synthesized pleuromutilin derivatives 3 and 4a–l, with tiamulin fumarate used a as reference drug, were screened for their in vitro antibacterial activity against Escherichia coli (E. coli), Staphylococcus aureus (S. aureus), Methicillin-resistant Staphylococcus aureus (MRSA), Staphylococcus vitulinus (S. vitulinus), Staphylococcus warneri (S. warneri), and Staphylococcus haemolyticus (S. haemolyticus). The antibacterial activities are reported in Table 1 as the minimum inhibitory concentration (MIC) using the agar dilution method. The MICs of the 13 new pleuromutilin derivatives in vitro against E. coli ranged from 10 to 80 μg/mL; against S. aureus, MRSA, S. vitulinus, S. warneri, and S. haemolyticus ranged from 0.156 to 40 μg/mL, respectively.
(§2) The MIC for the synthesized compounds (3 and 4a–l) and tiamulin fumarate used as a reference drug were determined using the agar dilution method according to the National Committee for Clinical Laboratory Standards (NCCLS). Tested compounds were dissolved in 25%–40% DMSO to a solution with a concentration of 1280 µg/mL, whereas tiamulin fumarate was directly dissolved in 10 mL of distilled water at the same concentration as the tested compounds. All the solutions were then diluted twofold with sterile water to provide 11 dilutions (final concentration is 0.625 µg/mL). A 2 mL volume of the 2-fold serial dilution of each test compound/drug was incorporated into 18 mL of hot Muellere-Hinton agar medium. Inoculums, including five Gram (+), S. aureus, MRSA, S. vitulinus, S. warneri, S. haemolyticus, and one Gram (−), E. coli were prepared from blood slants and adjusted to approximately 10^5–10^6 CFU/mL with sterile saline (0.90% NaCl). A 10 µL amount of bacterial suspension was spotted onto Muellere-Hinton agar plates containing serial dilutions of the compounds/drug. The plates were incubated at 36.5 °C for 24–48 h. The same procedure was repeated in triplicate.

Experiment [2] relates to Staphylococcus aureus (S. aureus). Nature of the experiment: MIC testing, agar dilution method. The conditions noted are these: 36.5 °C, 24–48 h. It counts as cell-based.
Text: as §1, §2
(In agar dilution, organisms are placed on agar that contains the substance at set levels.)

Experiment [3] has as its system Escherichia coli (E. coli). Put plainly: MIC testing, agar dilution method. The conditions noted are these: 36.5 °C, 24–48 h. It counts as cell-based.
Text: as §1, §2

Experiment [4] concerns Methicillin-resistant Staphylococcus aureus (MRSA). Put plainly: MIC testing, agar dilution method. To be noted: 36.5 °C, 24–48 h. It counts as cell-based.
Text: as §1, §2

Experiment [5] has as its system Staphylococcus warneri (S. warneri). Put plainly: MIC testing, agar dilution method. To be noted: 36.5 °C, 24–48 h. It counts as cell-based.
Text: as §1, §2

Experiment [6] concerns Staphylococcus vitulinus (S. vitulinus). Nature of the experiment: MIC testing, agar dilution method. It counts as cell-based. The conditions noted are these: Mammaliicoccus vitulinus, 36.5 °C, 24–48 h.
Text: as §1, §2

In the next experiment the test system is S. vitulinus. Nature of the experiment: Oxford cup assay, zone of inhibition. To be noted: Mammaliicoccus vitulinus. Format: cell-based, Staphylococcus vitulinus. As to the method:
(§3) The Oxford cup assays were carried out to evaluate the antibacterial activities against the above-mentioned six bacterial strains. The zones of inhibition for two concentrations (320 and 160 μg/mL) of the synthetic compounds and tiamulin fumarate were measured. The results of Oxford cup assay correspond with that obtained by agar dilution method (MICs) as a whole.
(§4) The procedure for Oxford cup assays was the same as that previously reported. Briefly, inoculums were prepared in 0.9% saline using McFarland standard and spread uniformly on nutrient agar plates. The 320 and 160 µg/mL of all the tested compounds were added individually into the Oxford cups that were placed at equal distances above the agar surfaces. The zone of inhibition for each concentration was measured after a 24–36 h incubation at 37 °C. The same procedure was repeated in triplicate.

Another experiment concerns E. coli. Put plainly: Oxford cup assay, zone of inhibition. Format: cell-based. The conditions noted are these: Escherichia coli. As to the method:
as §3, §4

The next experiment has as its system S. warneri. Put plainly: Oxford cup assay, zone of inhibition. Format: cell-based. To be noted: Staphylococcus warneri. As to the method:
as §3, §4

A further experiment has as its system S. aureus. Nature of the experiment: Oxford cup assay, zone of inhibition. It counts as cell-based. The conditions noted are these: Staphylococcus aureus. As for the experimental part:
as §3, §4

A further experiment deals with MRSA. Nature of the experiment: Oxford cup assay, zone of inhibition. It counts as cell-based. The conditions noted are these: Staphylococcus aureus. As to the method:
as §3, §4

The subject of a further experiment is S. haemolyticus. Put plainly: Oxford cup assay, zone of inhibition. Format: cell-based. To be noted: Staphylococcus haemolyticus. As to the method: as §3, §4

Regarding `C=C[C@]1(C)C[C@@H](OC(=O)CSc2nc3ccc(NC(=O)c4ccc(Cl)cc4)cc3[nH]2)[C@]2(C)[C@H](C)CC[C@]3(CCC(=O)[C@H]32)[C@@H](C)[C@@H]1O` [Compound 4c, 14-O-((4-Chlorobenzamide-5-aminobenzimidazole-2-yl)thioacetyl) mutilin], the MIC in experiment [1], in experiment [2], in [3], in [4], in [5] and in experiment [6] was 40 µg/mL (≈ 60.2 µM) each time. Further, the zone of inhibition – broadly, the size of the clear area around the sample on an inoculated plate – at 160 µg/mL in the experiment on S. vitulinus was found to be 20.5 mm; in the experiment on E. coli it was 17.2 mm; with S. warneri it was 19.2 mm; in the experiment on S. aureus it was 14.3 mm; in the experiment on MRSA it was 14.6 mm; in the experiment with S. haemolyticus it was 16.9 mm. Also, the zone of inhibition at 320 µg/mL in the experiment on S. vitulinus is 21.8 mm; with E. coli it was 17.7 mm; with S. warneri, 22.2 mm; in the experiment with S. aureus, 16.5 mm; in the experiment with MRSA it was 15.5 mm; in the experiment with S. haemolyticus, 20.9 mm.
`C=C[C@]1(C)C[C@@H](OC(=O)CSc2nc3ccc(NC(=O)C4CCCCC4)cc3[nH]2)[C@]2(C)[C@H](C)CC[C@]3(CCC(=O)[C@H]32)[C@@H](C)[C@@H]1O` [Compound 4j, 14-O-((Cyclohexanecarboxamide-5-aminobenzimidazole-2-yl)thioacetyl) mutilin]: the MIC (commonly the smallest concentration in the dilution series that meets the test's criterion for growth inhibition) in experiment [1] stood at 10 µg/mL (≈ 15.7 µM); in experiment [2], 5 µg/mL (≈ 7.86 µM); in experiment [3], 20 µg/mL (≈ 31.5 µM); in experiment [4], 1.25 µg/mL (≈ 1.97 µM); in experiment [5], 2.5 µg/mL (≈ 3.93 µM); in [6], 1.25 µg/mL (≈ 1.97 µM). Moreover, the zone of inhibition at 160 µg/mL in the experiment on S. vitulinus was 26 mm; in the experiment with E. coli, 17.4 mm; in the experiment with S. warneri, 24.7 mm; with S. aureus it was 15.4 mm; in the experiment on MRSA, 28 mm; with S. haemolyticus, 23 mm. In addition, the zone of inhibition at 320 µg/mL with S. vitulinus turned out to be 29.1 mm; in the experiment with E. coli, 19.8 mm; in the experiment on S. warneri it was 27.7 mm; with S. aureus, 27.2 mm; in the experiment with MRSA, 31.9 mm; in the experiment with S. haemolyticus, 26.4 mm.
For `C=C[C@]1(C)C[C@@H](OC(=O)CSc2nc3ccc(NC(=O)c4cccc(C)c4)cc3[nH]2)[C@]2(C)[C@H](C)CC[C@]3(CCC(=O)[C@H]32)[C@@H](C)[C@@H]1O` [Compound 4e, 14-O-((3-Methylbenzamide-5-aminobenzimidazole-2-yl)thioacetyl) mutilin], the MIC in experiment [1] came out at 40 µg/mL (≈ 62.1 µM); in [2] it was 40 µg/mL (≈ 62.1 µM); in experiment [3], 80 µg/mL (≈ 124 µM); in experiment [4], 40 µg/mL (≈ 62.1 µM); in [5] it was 40 µg/mL (≈ 62.1 µM); in experiment [6], 40 µg/mL (≈ 62.1 µM). Also, the zone of inhibition at 160 µg/mL with S. vitulinus worked out at 18.1 mm; in the experiment with E. coli, 0 mm; in the experiment with S. warneri it was 20.8 mm; in the experiment with S. aureus, 17.9 mm; with MRSA it was 25.6 mm; with S. haemolyticus, 18.3 mm. In addition, the zone of inhibition at 320 µg/mL amounted to 20.3 mm in the experiment with S. vitulinus; 0 mm in the experiment on E. coli; 21.5 mm with S. warneri; 19.4 mm in the experiment on S. aureus; 27.8 mm with MRSA; 20.8 mm in the experiment with S. haemolyticus.
In the case of `C=C[C@]1(C)C[C@@H](OC(=O)CSc2nc3ccc(NC(=O)c4cccc(Cl)c4)cc3[nH]2)[C@]2(C)[C@H](C)CC[C@]3(CCC(=O)[C@H]32)[C@@H](C)[C@@H]1O` [Compound 4b, 14-O-((3-Chlorobenzamide-5-aminobenzimidazole-2-yl)thioacetyl) mutilin], the minimum inhibitory concentration (MIC) in [1] worked out at 20 µg/mL (≈ 30.1 µM); in experiment [2], 40 µg/mL (≈ 60.2 µM); in experiment [3] it was 80 µg/mL (≈ 120 µM); in [4], 20 µg/mL (≈ 30.1 µM); in experiment [5] it was 20 µg/mL (≈ 30.1 µM); in experiment [6] it was 10 µg/mL (≈ 15.1 µM). Also, the zone of inhibition at 160 µg/mL with S. vitulinus was 20.5 mm; with E. coli, 10.4 mm; with S. warneri it was 16.5 mm; with S. aureus it was 12.3 mm; in the experiment on MRSA, 17.3 mm; with S. haemolyticus, 20.3 mm. Besides, the zone of inhibition at 320 µg/mL in the experiment with S. vitulinus was found to be 23.8 mm; with E. coli, 0 mm; in the experiment on S. warneri, 19.5 mm; in the experiment with S. aureus, 15.8 mm; in the experiment on MRSA it was 21.7 mm; in the experiment with S. haemolyticus, 20.4 mm.
Consider `C=C[C@]1(C)C[C@@H](OC(=O)CSc2nc3ccc(NC(=O)c4ccccc4C)cc3[nH]2)[C@]2(C)[C@H](C)CC[C@]3(CCC(=O)[C@H]32)[C@@H](C)[C@@H]1O` [Compound 4d, 14-O-((2-Methylbenzamide-5-aminobenzimidazole-2-yl)thioacetyl) mutilin], for which the minimal inhibitory concentration (MIC) was determined as 40 µg/mL (≈ 62.1 µM) in experiment [1]; 10 µg/mL (≈ 15.5 µM) in experiment [2]; 80 µg/mL (≈ 124 µM) in [3]; 40 µg/mL (≈ 62.1 µM) in experiment [4]; 40 µg/mL (≈ 62.1 µM) in [5]; 40 µg/mL (≈ 62.1 µM) in experiment [6]. The zone of inhibition at 160 µg/mL with S. vitulinus worked out at 18.2 mm; with E. coli, 0 mm; in the experiment with S. warneri it was 20.6 mm; in the experiment on S. aureus it was 14.7 mm; in the experiment on MRSA, 16.3 mm; in the experiment on S. haemolyticus, 17.4 mm. In addition, the zone of inhibition at 320 µg/mL in the experiment on S. vitulinus is 19.1 mm; in the experiment on E. coli, 0 mm; in the experiment with S. warneri, 22.3 mm; with S. aureus it was 17.8 mm; in the experiment on MRSA, 19.7 mm; with S. haemolyticus it was 18.4 mm.
Consider `C=C[C@]1(C)C[C@@H](OC(=O)CSc2nc3ccc(NC(=O)c4ccc(OC)cc4)cc3[nH]2)[C@]2(C)[C@H](C)CC[C@]3(CCC(=O)[C@H]32)[C@@H](C)[C@@H]1O` [Compound 4i, 14-O-((4-Methoxybenzamide-5-aminobenzimidazole-2-yl)thioacetyl) mutilin], for which the MIC in experiment [1] was determined as 5 µg/mL (≈ 7.58 µM); in experiment [2], 40 µg/mL (≈ 60.6 µM); in [3], 40 µg/mL (≈ 60.6 µM); in [4], 20 µg/mL (≈ 30.3 µM); in experiment [5], 20 µg/mL (≈ 30.3 µM); in experiment [6], 40 µg/mL (≈ 60.6 µM). Also, the zone of inhibition at 160 µg/mL in the experiment on S. vitulinus came out at 17.6 mm; in the experiment with E. coli, 14.2 mm; with S. warneri, 18.6 mm; with S. aureus it was 18.6 mm; in the experiment on MRSA, 21.3 mm; with S. haemolyticus, 23 mm. In addition, the zone of inhibition at 320 µg/mL was 18.2 mm in the experiment with S. vitulinus; 17.7 mm in the experiment with E. coli; 21.8 mm in the experiment on S. warneri; 21.5 mm in the experiment with S. aureus; 25.7 mm in the experiment with MRSA; 32.9 mm with S. haemolyticus.
